{"source": "patent US8865891B2", "about": "“Optically-detectable enzyme substrates and their method of use” (priority 2004, dated 2014)", "key": {"[1]": {"biological_target": "β-lactamase-conjugated secondary antibody (Escherichia coli, UniProt P62593)", "sequence (P62593 24-286 limits assumed)": "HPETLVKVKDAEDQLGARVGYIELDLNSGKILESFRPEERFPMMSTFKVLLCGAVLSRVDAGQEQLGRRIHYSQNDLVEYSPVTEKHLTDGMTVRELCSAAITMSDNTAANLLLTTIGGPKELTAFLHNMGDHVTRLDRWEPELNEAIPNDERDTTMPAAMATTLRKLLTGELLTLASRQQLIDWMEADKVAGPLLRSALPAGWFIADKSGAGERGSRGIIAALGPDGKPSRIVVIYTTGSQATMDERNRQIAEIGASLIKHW", "experiment": "Fluorogenic sandwich ELISA for prostate specific antigen (PSA)", "details": "1 μg substrate; fluorogenic assay", "experimental": "For the fluorogenic assay, 100 μl/well of a 10 μg/ml solution of anti-prostate specific antigen (PSA) antibody was applied to microplate wells. After incubation and washes, a dilution series of purified PSA was applied, and detection was achieved using 100 μl of a 10 μg/ml of an anti-PSA primary antibody and 100 μl of a 10 μg/ml of a β-lactamase-conjugated secondary antibody in the presence of 1 μg Compound 108 substrate (with appropriate washes between steps). The Z-statistic^1 gives a lower limit of detection of PSA in this assay of 16 pg/ml. For the colorimetric assay, a commercially available kit for the detection of PSA in human serum or plasma was used according to the manufacturers instructions. The assay was performed using the PSA standards provided in the kit. […] The reaction was stopped after 15 minutes using the stop solution provided in the kit and the absorbance was read at 450 nm. […]\nOptimal concentrations for use in ELISA-format assays was determined experimentally using a model sandwich ELISA to detect human Prostate Specific Antigen (PSA). […] The PSA standards were detected with a polyclonal rabbit anti-PSA antibody, then a secondary conjugate of goat anti-rabbit TEM-1. Plates were developed by addition of a β-lactamase substrate solution to drained wells, then measurement of fluorescence on the Tecan Safire fluorescence plate reader."}, "[2]": {"experiment": "pH range, hydrolysis rate: background fluorescence of substrate in buffers without enzyme", "type": "physicochemical", "details": "for increase in fluorescence due to hydrolysis (percentage of maximum fluorescence): 1 μg/mL, over 250 min; for time to complete hydrolysis: assumes a constant rate of hydrolysis", "experimental": "Compound 108 was prepared at a concentration of 1 μg/ml in three different buffers: MES at pH 5.5, PBS at pH 7.2, and Tris at pH 8.0. The substrate solutions were applied to the wells of a microplate, the plate was protected from light, and fluorescence values were gathered at time points from 10-250 minutes. […] Maximum signal was determined by the fluorescence value obtained when 10 μl of a 100 μg/ml solution of β-lactamase was added to control wells. Each point is the mean of 12 replicates. See, Example 32.\nSolutions of Compound 108 (1 μg/mL) were prepared in pH 5.5 MES, pH 7.2 PBS, and pH 8.0 Tris-HCl, then added to 16 wells of a 96-well plate. For each pH, high concentrations of TEM-1 were added to 4 wells to obtain a maximum signal (assuming complete cleavage of all substrate). The entire plate was read every 15 min. for 250 min. All fluorescent signals were averaged, then normalized to a percentage of the maximum fluorescence. […] The Tris-HCl samples increased in fluorescence about 7.5% over 250 min., corresponding to complete hydrolysis after about 55 hrs. […] These estimations assume a constant rate of hydrolysis."}, "[3]": {"biological_target": "TEM-1 (Escherichia coli, UniProt P62593)", "sequence (P62593 24-286 limits assumed)": "as above", "details": "read-out: Km (μM) difluoro sub., 5 nM TEM-1, PBS, pH 7.2", "quoted_text": "For determination of Km of the β-lactamase substrate with TEM-1, substrates ranging from 40 μg/mL to 5 μg/mL were added to microplate wells with a constant concentration of 5 nM TEM-1. The plate was read for the first 5 minutes with a Tecan Safire fluorescence plate reader using a constant gain setting. Relative Fluorescence Units (RFUs) were converted into moles of product produced using a standard curve of the substrate's fluorescent product. This standard curve was produced by adding an excess of TEM-1 (0.5 μM) to an equal volume of substrate, and incubating for more than 1 hour. Substrate standard concentrations ranged from ˜16 nM to 2 μM. It was assumed the reaction went to completion. All enzyme and substrate solutions were prepared in PBS, pH 7.2."}, "[4]": {"biological_target": "TEM-1 β-lactamase (Escherichia coli, UniProt P62593)", "sequence (P62593 24-286 limits assumed)": "as above", "experiment": "Fluorescence from precipitating β-lactamase substrate in 96-well microplate", "type": "biochemical", "experimental": "This was diluted 2-fold in methanol to give a working solution of 1 mM. 20 μL of 250 nM TEM-1 β-lactamase was added to the wells of a 96-well microplate. Appropriate volumes of substrate were added to the wells to give final concentrations of 0, 30, 50, 60, 75, 100, 140, 160 and 200 uM after diluting to 100 μL with 100 mM phosphate, 150 mM NaCl (pH7.1). The final β-lactamase concentration was 50 nM. Samples were excited @ 360 nm and fluorescence was measured @ 450 nm, signal was read @ 5, 13, 19, 26, 35, 45, 51 and 65 minutes. Maximum signal was attained after 5 minutes."}}, "note": "Read-outs that look alike come from different tables or passages of the source."}
{"compound": "O=C(Cc1cccs1)NC1C(=O)N2C(C(=O)O)=C(/C=C/COc3cc4c(cc3F)C3(OC(=O)c5ccccc53)c3cc(F)c(OC/C=C/C5=C(C(=O)O)N6C(=O)C(NC(=O)Cc7cccs7)C6[S+]([O-])C5)cc3O4)C[S+]([O-])C12", "note": "(stereo not drawn) [Compound 108]", "values": [{"measurement": "lower limit of detection of PSA (Z-statistic)", "setting": "[1]", "value": 16, "unit": "pg/mL"}, {"measurement": "increase in fluorescence due to hydrolysis (percentage of maximum fluorescence)", "setting": "[2]; pH 5.5 MES and pH 7.2 PBS", "value": "about 3.25%"}, {"measurement": "time to complete hydrolysis", "setting": "[2]; pH 5.5 MES and pH 7.2 PBS", "value": "about 128 hrs"}, {"measurement": "hydrolysis rate in pH 8.0 Tris-HCl relative to pH 5.5 MES and pH 7.2 PBS", "setting": "[2]; pH 8.0 Tris-HCl vs MES/PBS", "value": "about double"}, {"measurement": "increase in fluorescence due to hydrolysis (percentage of maximum fluorescence)", "setting": "[2]; pH 8.0 Tris-HCl", "value": "about 7.5%"}, {"measurement": "time to complete hydrolysis", "setting": "[2]; pH 8.0 Tris-HCl", "value": "about 55 hrs"}]}
{"compound": "O=C(Cc1cccs1)NC1C(=O)N2C(C(=O)O)=C(C=CCOc3cc4c(cc3F)C3(OC(=O)c5ccccc53)c3cc(F)c(OCC=CC5=C(C(=O)O)N6C(=O)C(NC(=O)Cc7cccs7)C6[S+]([O-])C5)cc3O4)C[S+]([O-])C12", "note": "(stereo not drawn) [Compound 108]", "values": [{"measurement": "Km", "setting": "[3]; Lineweaver-Burk plot", "value": 40, "unit": "µM"}, {"measurement": "Km", "setting": "[3]; Scatchard plot", "value": 36, "unit": "µM"}]}
{"compound": "O=C(Cc1cccs1)NC1C(=O)N2C(C(=O)O)=C(COc3ccccc3-c3nc4ccccc4c(=O)[nH]3)C[S+]([O-])C12", "note": "(stereo not drawn) [Compound 38]", "values": [{"measurement": "fluorescence enhancement upon reaction w/β-lactamase", "setting": "[4]; 50 nM β-lactamase, excitation 360 nm, emission 450 nm, pH 7.1", "value": "≥ 90", "unit": "fold"}, {"measurement": "time at which maximum signal was attained", "setting": "[4]; 50 nM β-lactamase, pH 7.1", "value": 5, "unit": "min"}, {"measurement": "reaction with β-lactamase in the presence of 40% methanol", "setting": "[4]; 40% methanol", "value": "no reaction occurred"}, {"measurement": "signal at high concentrations of substrate", "setting": "[4]; substrate up to 200 uM, presumably due to decreased solubility", "value": "signal dropped"}]}
